In article PMC7139549, “TLD1433 Photosensitizer Inhibits Conjunctival Melanoma Cells in Zebrafish Ectopic and Orthotopic Tumour Models” (Cancers, 2020):

Legend:
[1] = tested on: CRMM2 cells; experiment: Annexin-V-FITC / Propidium Iodide FACS, CRMM2; assay type: cell-based, Human
Excerpt: (§1) Depending on the nature and intracellular localization of a PS, the light dose, and the cell type, PDT is known to provoke either necrosis, apoptosis, or autophagy. In order to investigate the death mechanism induced by green light-activated TLD1433 in CRMM1 and CRMM2 cells, the cells were stained with Annexin V and propidium iodide, and further analysed by fluorescence-activated cell sorting (FACS).
(§2) Figure 3 Green light irradiation of TLD1433 induces apoptosis and necrosis in CRMM1 and CRMM2 cells. (A) CRMM1 and (C) CRMM2 were stained with Annexin-V-FITC and Propidium Iodide. The percentages of live, early apoptotic, later apoptotic and necrotic cells in CRMM1 (B) and CRMM2 (D) were counted by FACS. Results are presented as means ± SD from three independent experiments. […]

[2] = tested on: CRMM1 cells; experiment: Annexin-V-FITC / Propidium Iodide FACS, CRMM1; assay type: cell-based, Human
Excerpt: as §1, §2

For `Cc1ccnc(-c2cc(C)ccn2)c1.Cc1ccnc(-c2cc(C)ccn2)c1.[Cl-].[Cl-].[Ru+2].c1csc(-c2ccc(-c3ccc(-c4nc5c6cccnc6c6ncccc6c5[nH]4)s3)s2)c1` [TLD1433], the “cell fate by FACS (in words)” value ([1]; CRMM2, dark TLD1433 group) was “most cells were found alive”, the “cell fate by FACS (in words)” value ([1]; CRMM2, light-activated TLD1433 group) was “about half of the cells were found dead” and the “cell fate by FACS (in words)” value ([2]; CRMM1, dark TLD1433 group) was “most cells were found alive”. For the same molecule, the “cell fate by FACS (in words)” value ([2]; CRMM1, light-activated TLD1433 group) was “about half of the cells were found dead”.
